Assay [1] concerns colon cancer model Colon-26. Briefly: (R)-ketorolac combined with gemcitabine on colon cancer model Colon-26, tumor growth curve. The note with it: Colon-26 s.c. in male BALB/C mice; (R)-ketorolac alone by gavage 0.1 mg/d for 12 d. Format: in vivo.
Method: (§1) The colon cancer tumor model was established by using adult male BALB/C mice which were subcutaneously inoculated 106 well-growing Colon-26 tumor cells. Starting from the 7th day after tumor inoculation, the two largest diameters of the tumors were measured with vernier calipers twice a week, and the tumor size was expressed as area (square millimeters). After the tumors grew to a certain size, the mice were randomly divided into 4 groups, including a control group (n=5) and 3 treatment groups: the (R)-ketorolac monotherapy group (n=5) was administered by gavage, 0.1 mg/d, for a total of 12 d; the gemcitabine monotherapy group (n=4) was administered intraperitoneally, 2 mg/1 time every 3 d, for a total of 4 times; and the combined therapy group (n=5) adopted the two drugs in combination, and the dosage and frequency of administration were the same as those in the monotherapy group.
After starting the treatment, the tumors were measured twice a week, and a tumor growth curve was made based on average tumor area=SEM.
Assay [2] deals with aortic dissection and aortic aneurysm. Particulars: oral administration; from CN202111115983.X; cited from earlier work.
The conditions of assay [3]: stronger than (R)-ketorolac; cited from earlier work.
The conditions of assay [4]: stronger than (R)-ketorolac; cited from earlier work. The source holds these as a separate data set.
The test system of assay [5] is colon cancer model Colon-26. The note with it: Colon-26 in BALB/C mice; cyclophosphamide i.p. 3 mg every 6 d x3, with or without (R)-ketorolac 0.1 mg/d x18.
Method: as §1
The colon cancer tumor model was established as described in the above.
After starting the treatment, the tumors were measured twice a week, and a tumor growth curve was made based on average tumor area±SEM.

Each structure is given as a SMILES string.

The values that follow come from US20260035372A1, “METHOD FOR PREPARING (R)-KETOROLAC AND USE THEREOF” (Yinuoke Medicine Science and Technology Co LTD, priority 2022, published 2026).

For `O=C(c1ccccc1)c1ccc2n1CC[C@H]2C(=O)O` [(R)-ketorolac], in assay [1], the “effect on colon cancer tumor growth (tumor area growth curve, FIG. 16)” value was “no effect”. In addition, the “effect on aortic dilation, incidence and mortality of aortic dissection and aortic aneurysm” value in assay [2] was “inhibit pathological dilation of the aorta and reduce the incidence and mortality of aortic dissection and aortic aneurysm”.

In the case of `O=C(c1ccccc1)c1ccc2n1CC[C@@H]2C(=O)O` [(S)-ketorolac], in assay [3], the “analgesic effect relative to (R)-ketorolac” value is 230 times. Further, in assay [4], the “anti-inflammatory effect relative to (R)-ketorolac” value is 60 times.

On to `O=P1(N(CCCl)CCCl)NCCCO1` (stereo not drawn) [cyclophosphamide], for which, in assay [5], the cure rate is 16.7% and the mice completely cured is reported as 1 out of 6.
